Results reported in patent US9630841B2, “Method for producing an aqueous stable chlorine dioxide solution” (A.P.F. AQUA SYSTEM AG, priority 2010, dated 2017).

Experiments:
[1] = Saturation limit of chlorine dioxide in water; format: physicochemical; conditions: 5° C. and normal pressure
Source text: With the method according to the invention, chlorine dioxide solutions can be produced in any desired and/or suitable concentration. Preferably, aqueous solutions of up to about 2 wt %, preferably about 1 wt % of chlorine dioxide are produced with the method according to the invention. Chlorine dioxide solutions with higher concentrations are more difficult to obtain because of the limited solubility of chlorine dioxide in water, but they can nevertheless be realized. When using higher concentrations of chlorite for the production of the chlorine dioxide solutions according to the invention, in particular when using chlorite concentrations in the range of the saturation solubility of the corresponding chlorite salt, aqueous chlorine dioxide solutions with a concentration of up to about 4.5 wt % can be produced. The value of about 4.5 wt % represents the saturation limit of chlorine dioxide in water determined experimentally at 5° C. and normal pressure. With higher pressure, even free chlorine dioxide phases can be generated in water. […] This means that the solubility of chlorine dioxide is higher, the less foreign matter there is in the solution. […]

[2] = aqueous solution, 20° C.; cited from earlier work

[O][Cl+][O-] [chlorine dioxide]
saturation limit of chlorine dioxide in water [1]: about 4.5 wt %

O=S(=O)([O-])OOS(=O)(=O)[O-].[Na+].[Na+] [sodium peroxodisulfate]
saturation concentration [2]: about 54.5 wt %
